From publication PMC8654833 (Scientific Reports, 2021)
Values joined by “and” are separate entries in the source; they are usually repeats but may differ in a detail not shown here. Identical values can stand only once.

What was measured:
[1] = molecular target: T1, 5-HT1A (Homo sapiens, UniProt P08908); test: Single-concentration radioligand binding screen (Eurofins Cerep), 5-HT1A; settings: single concentration 10 µM screen, [3H]8-OH-DPAT
T1 construct: Euroscreen FAST (contract assay)
T1 sequence (P08908 1-422): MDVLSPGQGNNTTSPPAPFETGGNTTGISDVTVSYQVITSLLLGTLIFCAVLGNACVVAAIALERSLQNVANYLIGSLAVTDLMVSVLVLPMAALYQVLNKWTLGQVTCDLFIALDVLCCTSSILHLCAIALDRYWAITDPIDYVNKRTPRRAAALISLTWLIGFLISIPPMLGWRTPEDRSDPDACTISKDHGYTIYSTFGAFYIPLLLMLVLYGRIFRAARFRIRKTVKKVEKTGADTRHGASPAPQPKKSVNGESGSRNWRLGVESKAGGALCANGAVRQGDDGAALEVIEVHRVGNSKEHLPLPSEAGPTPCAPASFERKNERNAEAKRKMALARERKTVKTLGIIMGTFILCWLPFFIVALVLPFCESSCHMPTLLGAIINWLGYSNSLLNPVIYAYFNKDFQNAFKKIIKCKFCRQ
Procedure: (§1) This study included binding assays (87 GPCR targets), measured as % of binding inhibition of a reference radioligand, as well as uptake and enzyme assays (19 targets), the latter measured as % inhibition of control enzyme activity. […] It was performed by radioligand binding competition by Euroscreen (Euroscreen FAST, Belgium). The following nanomolar concentrations were tested in duplicate: 0.001, 0.01, 0.1, 1, 10, 100, 1000, 10,000. Dose–response curves were fitted with the least squares method. IC50 results are shown as pIC50, corresponding to the negative log10 of IC50 in molar.

[2] = system: Ca^2+ channel, ds; test: Single-concentration radioligand binding screen (Eurofins Cerep), Ca2+ channel diltiazem site; settings: single concentration 10 µM screen, [3H]diltiazem
Procedure: as §1

[3] = molecular target: T2, 5-HT2C (Homo sapiens, UniProt P28335); test: Single-concentration radioligand binding screen (Eurofins Cerep), 5-HT2C; settings: single concentration 10 µM screen, [3H]mesulergine
T2 construct: Euroscreen FAST (contract assay)
T2 sequence (P28335 33-458): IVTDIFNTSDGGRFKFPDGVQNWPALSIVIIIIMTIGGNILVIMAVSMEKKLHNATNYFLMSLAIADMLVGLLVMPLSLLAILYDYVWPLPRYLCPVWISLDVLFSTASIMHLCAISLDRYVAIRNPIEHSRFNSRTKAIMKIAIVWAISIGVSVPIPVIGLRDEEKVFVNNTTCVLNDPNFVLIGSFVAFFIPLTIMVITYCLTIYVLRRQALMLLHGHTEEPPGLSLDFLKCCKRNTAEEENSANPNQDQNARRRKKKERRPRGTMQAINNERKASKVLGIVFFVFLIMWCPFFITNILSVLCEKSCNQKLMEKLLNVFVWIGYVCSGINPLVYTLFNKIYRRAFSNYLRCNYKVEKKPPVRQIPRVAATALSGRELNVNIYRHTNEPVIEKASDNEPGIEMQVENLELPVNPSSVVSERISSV
Procedure: as §1

[4] = molecular target: T3, NET (Homo sapiens, UniProt P23975); test: Single-concentration radioligand binding screen (Eurofins Cerep), norepinephrine transporter; settings: single concentration 10 µM screen, 3H]nisoxetine
T3 construct: Euroscreen FAST (contract assay)
Procedure: as §1

[5] = molecular target: T1, 5-HT1A; test: Radioligand binding competition dose-response (Euroscreen), 5-HT1A
Procedure: as §1

[6] = molecular target: T3, NET; test: Radioligand binding competition dose-response (Euroscreen), norepinephrine transporter; settings: dose-response study, maximal concentration 10 µM, 3H]nisoxetine
Procedure: as §1

[7] = Stability in vehicle at 37 °C by LC-MS; assay type: physicochemical; settings: vehicle (20% DMSO in distilled water), data not shown
[8] = molecular target: 5-HT2B (Homo sapiens, UniProt P41595); settings: dose-response study, maximal concentration 10 µM, [3H]mesulergine
[9] = in vivo; settings: CD-1, mouse, po, 10 mg/kg
[10] = Plasma pharmacokinetics after IV, PO or SC administration; settings: for half-life / bioavailability: in vivo
[11] = IV 2 mg/kg, individual mice n1-n3, 2 mg/kg
[12] = PO 10 mg/kg, individual mice n1-n3, 10 mg/kg
[13] = SC 10 mg/kg, individual mice n1-n3, 10 mg/kg

T3 sequence (P23975 whole entry): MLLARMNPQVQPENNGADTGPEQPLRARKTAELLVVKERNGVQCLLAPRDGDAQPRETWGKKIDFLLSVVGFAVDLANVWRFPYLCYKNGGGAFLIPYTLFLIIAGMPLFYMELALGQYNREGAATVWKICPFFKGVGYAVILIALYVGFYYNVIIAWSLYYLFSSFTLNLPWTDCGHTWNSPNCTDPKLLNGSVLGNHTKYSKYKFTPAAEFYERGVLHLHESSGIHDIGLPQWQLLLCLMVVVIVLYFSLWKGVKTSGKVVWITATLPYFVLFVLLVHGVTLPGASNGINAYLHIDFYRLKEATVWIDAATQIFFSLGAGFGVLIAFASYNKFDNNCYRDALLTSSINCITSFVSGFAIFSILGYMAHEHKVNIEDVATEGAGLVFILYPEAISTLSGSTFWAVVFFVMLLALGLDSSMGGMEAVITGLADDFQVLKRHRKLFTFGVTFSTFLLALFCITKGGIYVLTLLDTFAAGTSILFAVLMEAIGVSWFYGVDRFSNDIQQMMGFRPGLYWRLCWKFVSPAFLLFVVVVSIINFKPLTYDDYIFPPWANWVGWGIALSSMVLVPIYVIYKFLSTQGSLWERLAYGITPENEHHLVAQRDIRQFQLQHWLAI
Chain of 5-HT2B (P41595 whole entry, species assumed): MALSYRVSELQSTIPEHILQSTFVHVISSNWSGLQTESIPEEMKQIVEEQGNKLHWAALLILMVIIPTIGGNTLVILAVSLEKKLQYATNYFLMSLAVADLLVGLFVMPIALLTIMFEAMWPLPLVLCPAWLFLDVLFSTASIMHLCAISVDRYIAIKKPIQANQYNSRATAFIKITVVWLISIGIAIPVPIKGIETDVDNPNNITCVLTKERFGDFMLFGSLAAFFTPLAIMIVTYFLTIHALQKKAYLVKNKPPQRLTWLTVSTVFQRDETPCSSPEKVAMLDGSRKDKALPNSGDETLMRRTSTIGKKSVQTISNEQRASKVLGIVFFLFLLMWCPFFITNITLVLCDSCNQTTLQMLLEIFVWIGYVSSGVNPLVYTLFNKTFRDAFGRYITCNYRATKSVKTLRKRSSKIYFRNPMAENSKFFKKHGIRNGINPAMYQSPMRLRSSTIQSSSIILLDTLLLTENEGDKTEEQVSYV

In the case of CC(N)Cc1c[nH]c2ccc(OCc3cccs3)cc12 (stereo not shown) [BW, 1-[5-(thiophen-2-ylmethoxy)-1H-indol-3-yl]propan-2-amine], the inhibition at 10 µM [1] is reported as 91.8%, the “%Binding inhibition at 10 µM” value [2] is reported as 66.3% and the inhibition at 10 µM [3] is reported as 97.8%. For the same compound, the inhibition at 10 µM [4] was 68.7%, the IC50 [5] was 0.589 µM and the inhibition at 10 µM ([5]; dose-response study, maximal concentration 10 µM, [3H]8-OH-DPAT) was 95%. The “%Binding inhibition at 10 µM” value ([5]; dose-response study, maximal concentration 10 µM, [3H]8-OH-DPAT, 10 µM) was 95.26%, the inhibition at 10 µM [6] was 74.4% and the “stable at 37 °C in vehicle” value [7] was “at least 2 months”. For the same compound, the “%Binding inhibition at 10 µM” value [8] was 103.54%, the Tmax [9] was 30 min and the “plasma detection at 24 h” value ([10]; 24 h after a single administration (data not shown)) was “no compound could be detected”. The half-life ([10]; CD-1, mouse, iv, 2 mg/kg, T1/2, IV 2 mg/kg, individual mice n1-n3) was 58.8 min, the half-life ([10]; CD-1, mouse, iv, 2 mg/kg, T1/2, IV 2 mg/kg, mean) was 55.8 min and the bioavailability ([10]; CD-1, mouse, po, 10 mg/kg, PO 10 mg/kg) was 4.72%. For the same compound, the half-life ([10]; CD-1, mouse, po, 10 mg/kg, T1/2, PO 10 mg/kg, mean) was 153 min, the bioavailability ([10]; CD-1, mouse, sc, 10 mg/kg, SC 10 mg/kg) was 35% and the half-life ([10]; CD-1, mouse, sc, 10 mg/kg, T1/2, SC 10 mg/kg, individual mice n1-n3) was 68.4 min. It also gave a half-life ([10]; CD-1, mouse, sc, 10 mg/kg, T1/2, SC 10 mg/kg, mean) of 82.2 min, an AUC0-inf ([10]; CD-1, mouse, plasma, iv, 2 mg/kg, AUC0-inf, IV 2 mg/kg, individual mice n1-n3) of 289 ng·h/mL and an AUC0-inf ([10]; CD-1, mouse, plasma, iv, 2 mg/kg, AUC0-inf, IV 2 mg/kg, mean) of 236 ng·h/mL. The C0 ([10]; CD-1, mouse, plasma, iv, 2 mg/kg, C0, IV 2 mg/kg, individual mice n1-n3) was 406 ng/mL, the C0 ([10]; CD-1, mouse, plasma, iv, 2 mg/kg, C0, IV 2 mg/kg, mean) was 354 ng/mL and the AUC0-inf ([10]; CD-1, mouse, plasma, po, 10 mg/kg, AUC0-inf, PO 10 mg/kg, individual mice n1-n3) was 239 ng·h/mL. The AUC0-inf ([10]; CD-1, mouse, plasma, po, 10 mg/kg, AUC0-inf, PO 10 mg/kg, mean) was 278 ng·h/mL, the Cmax ([10]; CD-1, mouse, plasma, po, 10 mg/kg, Cmax, PO 10 mg/kg, mean) was 77 ng/mL and the Tmax ([10]; CD-1, mouse, plasma, po, 10 mg/kg, Tmax, PO 10 mg/kg, mean) was 34.8 min. For the same compound, the AUC0-inf ([10]; CD-1, mouse, plasma, sc, 10 mg/kg, AUC0-inf, SC 10 mg/kg, individual mice n1-n3) was 2030 ng·h/mL, the AUC0-inf ([10]; CD-1, mouse, plasma, sc, 10 mg/kg, AUC0-inf, SC 10 mg/kg, mean) was 2070 ng·h/mL and the Cmax ([10]; CD-1, mouse, plasma, sc, 10 mg/kg, Cmax, SC 10 mg/kg, individual mice n1-n3) was 1100 ng/mL. The Cmax ([10]; CD-1, mouse, plasma, sc, 10 mg/kg, Cmax, SC 10 mg/kg, mean) was 1020 ng/mL, the Tmax ([10]; CD-1, mouse, plasma, sc, 10 mg/kg, Tmax, SC 10 mg/kg, mean) was 11.4 min and the AUC0-inf [10, 11] was 221 ng·h/mL and 199 ng·h/mL. For the same compound, the AUCExtra [10, 11] was 4.8% and 3.5% and 4.5%, the C0 [10, 11] was 290 ng/mL and 366 ng/mL and the T1/2 [10, 11] was 50.4 min and 58.8 min. The AUCExtra ([10]; IV 2 mg/kg, mean) was 4.3%, the AUC0-inf [10, 12] was 294 ng·h/mL and 302 ng·h/mL and the AUCExtra [10, 12] was 29.9% and 7.2% and 1.0%. The Cmax [10, 12] was 36.5 ng/mL and 61.5 ng/mL and 132 ng/mL, the T1/2 [10, 12] was 270 min and 121 min and 67.8 min and the Tmax [10, 12] was 15 min and 60 min. For the same compound, the AUCExtra ([10]; PO 10 mg/kg, mean) was 12.7%, the AUC0-inf [10, 13] was 2246 ng·h/mL and 1938 ng·h/mL and the AUCExtra [10, 13] was 0.7% and 1.4% and 3.3%. For the same compound, the Cmax [10, 13] was 1010 ng/mL and 935 ng/mL, the T1/2 [10, 13] was 72 min and 99 min and the Tmax [10, 13] was 0.25 h (2×) and 0.08 h. The AUCExtra ([10]; SC 10 mg/kg, mean) was 1.8%.
